Results taken from patent publication US11111237B2, “Bicyclic compound and use thereof” (SK BIOPHARMACEUTICALS CO., LTD., priority 2019, dated 2021).
Counter-ions that a name gives are not always drawn.

Target: PRMT5-MEP50 enzyme complex (Homo sapiens (Human), UniProt O14744)
Experiment: PRMT5 enzyme activity in vitro assay (methylation of histone H4R3, ELISA absorbance at 450 nm)
Format: biochemical
Details: SAM, histone H4 peptide, room temperature 2 hours, 8 points from 10 μM to 0.128 nM
Method in brief: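 IC50 was derived from ELISA absorbance at 450 nm, using primary and HRP antibodies against H4R3 methylation on immobilised histone H4 peptide (residues 1-20). Compounds (10 μM to 0.128 nM, 8 points, 1:5) were incubated 2 h at room temperature with the PRMT5-MEP50 complex and SAM, diluted to 5 μg/mL and 2 μM respectively.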

PRMT5-MEP50 enzyme complex, sequence (O14744 2-637): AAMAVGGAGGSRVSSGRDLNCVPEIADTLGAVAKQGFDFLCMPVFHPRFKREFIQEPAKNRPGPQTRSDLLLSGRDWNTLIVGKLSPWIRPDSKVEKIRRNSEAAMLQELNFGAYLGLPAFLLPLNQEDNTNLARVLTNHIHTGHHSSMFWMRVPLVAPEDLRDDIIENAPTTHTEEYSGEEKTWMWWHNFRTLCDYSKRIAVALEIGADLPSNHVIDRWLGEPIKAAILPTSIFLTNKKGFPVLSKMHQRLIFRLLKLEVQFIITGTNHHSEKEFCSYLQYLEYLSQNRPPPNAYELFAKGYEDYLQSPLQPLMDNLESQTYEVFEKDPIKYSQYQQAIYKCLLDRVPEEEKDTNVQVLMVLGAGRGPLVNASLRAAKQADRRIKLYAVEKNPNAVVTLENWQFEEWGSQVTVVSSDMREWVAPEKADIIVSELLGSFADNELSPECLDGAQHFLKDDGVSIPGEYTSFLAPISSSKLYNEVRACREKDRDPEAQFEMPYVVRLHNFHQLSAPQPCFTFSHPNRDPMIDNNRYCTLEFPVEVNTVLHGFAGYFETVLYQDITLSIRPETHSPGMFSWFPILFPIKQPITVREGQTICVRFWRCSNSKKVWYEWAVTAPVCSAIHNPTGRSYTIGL
PRMT5-MEP50 enzyme complex, sequence (Q9BQA1 2-342 partner): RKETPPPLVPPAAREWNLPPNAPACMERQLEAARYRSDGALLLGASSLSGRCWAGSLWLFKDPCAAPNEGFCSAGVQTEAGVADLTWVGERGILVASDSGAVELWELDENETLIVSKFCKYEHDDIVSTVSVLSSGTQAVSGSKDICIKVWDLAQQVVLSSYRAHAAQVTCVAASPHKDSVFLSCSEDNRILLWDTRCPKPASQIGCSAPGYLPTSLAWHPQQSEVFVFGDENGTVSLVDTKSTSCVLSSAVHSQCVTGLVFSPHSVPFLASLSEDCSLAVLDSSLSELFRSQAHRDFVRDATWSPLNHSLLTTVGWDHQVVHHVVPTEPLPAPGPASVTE

Compound	IC50 [nM]
CC1CN(C[C@H](O)CN2CCc3ccccc3C2)C(=O)c2ccc(OC3CCNCC3)cc2O1 (stereo partly drawn) [Example 140, 4-[(2R)-3-(3,4-dihydro-1H-isoquinolin-2-yl)-2-hydroxypropyl]-2-methyl-8-(4-piperidyloxy)-2,3-dihydro-1,4-benzoxazepin-5-one di hydrochloride]	100 to 1000
O=C(c1ccc2c(c1)OCCN(C[C@H](O)CN1CCc3ccccc3C1)C2=O)N1CCCC(F)C1 (stereo partly drawn) [Example 194, 4-[(2R)-3-(3,4-dihydro-1H-isoquinolin-2-yl)-2-hydroxy-propyl]-8-(3-fluoropiperidine-1-carbonyl)-2,3-dihydro-1,4-benzoxazepin-5-one]	100 to 1000
O=C1c2ccc(OS(=O)(=O)C(F)(F)F)cc2CCCN1C[C@H](O)CN1CCc2ccccc2C1 [Example 8, [2-[(2R)-3-(3,4-dihydro-1H-isoquinolin-2-yl)-2-hydroxy-propyl]-1-oxo-4,5-dihydro-3H-2-benzazepin-7-yl]trifluoromethanesulfonate]	100 to 1000
O=C1c2ccc(CN3CCC(F)C3)cc2OCCN1C[C@H](O)CN1CCc2ccccc2C1 (stereo partly drawn) [Example 51, 4-[(2R)-3-(3,4-dihydro-1H-isoquinolin-2-yl)-2-hydroxy-propyl]-8-[(3-fluoropyrrolidin-1-yl)methyl]-2,3-dihydro-1,4-benzoxazepin-5-one]	100 to 1000
CC(=O)N1C2CCC1CC(Oc1ccc3c(c1)OCCN(C[C@H](O)CN1CCc4ccccc4C1)C3=O)C2 (stereo partly drawn) [Example 173, 8-[(8-acetyl-8-azabicyclo[3.2.1]octan-3-yl)oxy]-4-[(2R)-3-(3,4-dihydro-1H-isoquinolin-2-yl)-2-hydroxy-propyl]-2,3-dihydro-1,4-benzoxazepin-5-one]	1 to 100
CC(c1ccc2c(c1)OCCN(C[C@H](O)CN1CCc3ccccc3C1)C2=O)N1CCOCC1 (stereo partly drawn) [Example 221, 4-[(2R)-3-(3,4-dihydro-1H-isoquinolin-2-yl)-2-hydroxy-propyl]-8-(1-morpholinoethyl)-2,3-dihydro-1,4-benzoxazepin-5-one]	100 to 1000
O=C1c2ccc(CN3CCCC3)cc2OCCN1C[C@H](O)CN1CCc2ccccc2C1 [Example 24, 4-[(2R)-3-(3,4-dihydro-1H-isoquinolin-2-yl)-2-hydroxy-propyl]-8-(pyrrolidin-1-ylmethyl)-2,3-dihydro-1,4-benzoxazepin-5-one]	1 to 100
C[C@@H]1CN(C[C@H](O)CN2CCc3ccccc3C2)C(=O)c2ccc(CN3CC4(COC4)C3)cc2O1 [Example 250, (2R)-4-[(2R)-3-(3,4-dihydro-1H-isoquinolin-2-yl)-2-hydroxypropyl]-2-methyl-8-(2-oxa-6-azaspiro[3.3]heptan-6-ylmethyl)-2,3-dihydro-1,4-benzoxazepin-5-one]	100 to 1000
CN1CCC(Oc2ccc3c(n2)OC(C)(C)CN(C[C@H](O)CN2CCc4ccccc4C2)C3=O)CC1 [Example 145, 4-[(2R)-3-(3,4-dihydro-1H-isoquinolin-2-yl)-2-hydroxypropyl]-2,2-dimethyl-8-[(1-methyl-4-piperidyl)oxy]-3H-pyrido[3,2-f][1,4]oxazepin-5-one]	100 to 1000
CCN1CC(COc2ccc3c(c2)OCCN(C[C@H](O)CN2CCc4ccccc4C2)C3=O)C1 [Example 97, 4-[(2R)-3-(3,4-dihydro-1H-isoquinolin-2-yl)-2-hydroxy-propyl]-8-[(1-ethylazetidin-3-yl)methoxy]-2,3-dihydro-1,4-benzoxazepin-5-one]	100 to 1000
O=C1c2ccc(CN3CC4(COC4)C3)cc2OCCN1C[C@H](O)CN1CCc2ccccc2C1 [Example 28, 4-[(2R)-3-(3,4-dihydro-1H-isoquinolin-2-yl)-2-hydroxy-propyl]-8-(2-oxa-6-azaspiro[3.3]heptan-6-ylmethyl)-2,3-dihydro-1,4-benzoxazepin-5-one]	1 to 100
CCOc1ccc2c(c1)CCCN(C[C@H](O)CN1CCc3ccccc3C1)C2=O [Example 7, 2-[(2R)-3-(3,4-dihydro-1H-isoquinolin-2-yl)-2-hydroxy-propyl]-7-ethoxy-4,5-dihydro-3H-2-benzazepin-1-one]	100 to 1000
O=C1c2ccc(OC3CCN(CCF)CC3F)cc2OCCN1C[C@H](O)CN1CCc2ccccc2C1 (stereo partly drawn) [Example 207, 4-[(2R)-3-(3,4-dihydro-1H-isoquinolin-2-yl)-2-hydroxy-propyl]-8-[[3-fluoro-1-(2-fluoroethyl)-4-piperidyl]oxy]-2,3-dihydro-1,4-benzoxazepin-5-one]	100 to 1000
O=C(c1ccc2c(c1)OCCN(C[C@H](O)CN1CCc3ccccc3C1)C2=O)N1CCOC(F)(F)C1 [Example 195, 8-(2,2-difluoromorpholin-4-carbonyl)-4-[(2R)-3-(3,4-dihydro-1H-isoquinolin-2-yl)-2-hydroxy-propyl]-2,3-dihydro-1,4-benzoxazepin-5-one]	100 to 1000

Further lines, results first:

IC50 [nM]	Compound
100 to 1000	CC1CC(Oc2ccc3c(c2)N(C)CCN(C[C@H](O)CN2CCc4ccccc4C2)C3=O)CCN1 (stereo partly drawn) [Example 138, 4-[(2R)-3-(3,4-dihydro-1H-isoquinolin-2-yl)-2-hydroxy-propyl]-1-methyl-8-[(2-methyl-4-piperidyl)oxy]-2,3-dihydro-1,4-benzodiazepin-5-one; dihydrochloride]
100 to 1000	O=C1c2ccccc2OCCN1C[C@H](O)CN1CCc2ccccc2C1 [Example 149, 4-[(2R)-3-(3,4-dihydro-1H-isoquinolin-2-yl)-2-hydroxy-propyl]-2,3-dihydro-1,4-benzoxazepin-5-one]
100 to 1000	CN1CCOC(COc2ccc3c(c2)OCCN(C[C@H](O)CN2CCc4ccccc4C2)C3=O)C1 (stereo partly drawn) [Example 104, 4-[(2R)-3-(3,4-dihydro-1H-isoquinolin-2-yl)-2-hydroxy-propyl]-8-[(4-methylmorpholin-2-yl)methoxy]-2,3-dihydro-1,4-benzoxazepin-5-one]
100 to 1000	CC1(C)CN(C[C@H](O)CN2CCc3ccccc3C2)C(=O)c2ccc(CN3CCC4(COC4)C3)cc2O1 [Example 183, 4-[(2R)-3-(3,4-dihydro-1H-isoquinolin-2-yl)-2-hydroxy-propyl]-2,2-dimethyl-8-(2-oxa-7-azaspiro[3.4]octan-7-ylmethyl)-3H-1,4-benzoxazepin-5-one]
100 to 1000	CN1CCN(C[C@H](O)CN2CCc3ccccc3C2)C(=O)c2ccc(OC3CCN(C4COC4)CC3)cc21 [Example 129, 4-[(2R)-3-(3,4-dihydro-1H-isoquinolin-2-yl)-2-hydroxy-propyl]-1-methyl-8-[[1-(oxetan-3-yl)-4-piperidyl]oxy]-2,3-dihydro-1,4-benzodiazepin-5-one]
1 to 100	O=C1c2ccc(CN3CCCCC3)cc2OCCN1C[C@H](O)CN1CCc2ccccc2C1 [Example 23, 4-[(2R)-3-(3,4-dihydro-1H-isoquinolin-2-yl)-2-hydroxy-propyl]-8-(1-piperidylmethyl)-2,3-dihydro-1,4-benzoxazepin-5-one]
100 to 1000	CCC1CCCN1Cc1ccc2c(c1)OCCN(C[C@H](O)CN1CCc3ccccc3C1)C2=O (stereo partly drawn) [Example 48, 4-[(2R)-3-(3,4-dihydro-1H-isoquinolin-2-yl)-2-hydroxy-propyl]-8-[(2-ethylpyrrolidin-1-yl)methyl]-2,3-dihydro-1,4-benzoxazepin-5-one]
100 to 1000	CC(C)(O)CN1CCC(Oc2ccc3c(c2)OCCN(C[C@H](O)CN2CCc4ccccc4C2)C3=O)CC1 [Example 238, 4-[(2R)-3-(3,4-dihydro-1H-isoquinolin-2-yl)-2-hydroxy-propyl]-8-[[1-(2-hydroxy-2-methyl-propyl)-4-piperidyl]oxy]-2,3-dihydro-1,4-benzoxazepin-5-one]
100 to 1000	C[C@H]1CN(C[C@H](O)CN2CCc3ccccc3C2)C(=O)c2ccc(OC3CN(CCF)C3)cc2O1 [Example 201, (2S)-4-[(2R)-3-(3,4-dihydro-1H-isoquinolin-2-yl)-2-hydroxy-propyl]-8-[1-(2-fluoroethyl)azetidin-3-yl]oxy-2-methyl-2,3-dihydro-1,4-benzoxazepin-5-one]
100 to 1000	O=C1c2ccc(OCC3CCCO3)cc2OCCN1C[C@H](O)CN1CCc2ccccc2C1 (stereo partly drawn) [Example 67, 4-[(2R)-3-(3,4-dihydro-1H-isoquinolin-2-yl)-2-hydroxy-propyl]-8-(tetrahydrofuran-2-ylmethoxy)-2,3-dihydro-1,4-benzoxazepin-5-one]
1000 to 10000	O=C1c2c(F)cc(CN3CCOCC3)cc2OCCN1C[C@H](O)CN1CCc2ccccc2C1 [Example 108, 4-[(2R)-3-(3,4-dihydro-1H-isoquinolin-2-yl)-2-hydroxy-propyl]-6-fluoro-8-(morpholinomethyl)-2,3-dihydro-1,4-benzoxazepin-5-one]
100 to 1000	O=C1c2ccc(OC3CCN(CCO)CC3)cc2OCCN1C[C@H](O)CN1CCc2ccccc2C1 [Example 162, 4-[(2R)-3-(3,4-dihydro-1H-isoquinolin-2-yl)-2-hydroxy-propyl]-8-[[1-(2-hydroxyethyl)-4-piperidyl]oxy]-2,3-dihydro-1,4-benzoxazepin-5-one]
100 to 1000	CN1CCC[C@H](Oc2ccc3c(c2)OCCN(C[C@H](O)CN2CCc4ccccc4C2)C3=O)C1 [Example 213, 4-[(2R)-3-(3,4-dihydro-1H-isoquinolin-2-yl)-2-hydroxy-propyl]-8-[(1-methyl-3-piperidyl)oxy]-2,3-dihydro-1,4-benzoxazepin-5-one]
100 to 1000	COCCN1CC[C@@H](Oc2ccc3c(c2)O[C@H](C)CN(C[C@H](O)CN2CCc4ccccc4C2)C3=O)C1 [Example 274, (2R)-4-[(2R)-3-(3,4-dihydro-1H-isoquinolin-2-yl)-2-hydroxy-propyl]-8-[(3R)-1-(2-methoxyethyl)pyrrolidin-3-yl]oxy-2-methyl-2,3-dihydro-1,4-benzoxazepin-5-one]
100 to 1000	CN1CCC[C@@H](Oc2ccc3c(c2)OCCN(C[C@H](O)CN2CCc4ccccc4C2)C3=O)C1 [Example 218, 4-[(2R)-3-(3,4-dihydro-1H-isoquinolin-2-yl)-2-hydroxypropyl]-8-[(1-methyl-3-piperidyl)oxy]-2,3-dihydro-1,4-benzoxazepin-5-one]
